Assay results reported in US20030143713A1, “Novel glycosidase inhibitors and their pharmacological uses, in particular for treating diabetes” (priority 1999, published 2003).

Target: T1, isoenzyme 1 of barley α-amylase (AMY1) (Hordeum vulgare, UniProt P00693)
T1 construct: made in house; host or cells: Pichia pastoris
Assay: X-ray crystal structure of the AMY1/spermidine complex (cocrystallisation with spermidine, then soaking in acarbose)
Assay type: binding
Experimental: The 9 C-terminal residues of recombinant isoenzyme 1 of barley α-amylase (AMY1) were cleaved in order to obtain a C-terminal end of the same length as that of isoenzyme 2 (AMY2). The protein was then over-expressed in Pischia pastoris, purified and concentrated.
The protein preparation used for crystallisation has a concentration of 5.1 mg/ml and is in a solution of 10 mM MES (2-[N]-Morpholino ethane sulphonic acid), 100 mM CaCl2, 0.02% NaN3, pH 6.7.
The crystals were obtained by cocrystallisation thanks to the vapour diffusion principle using the hanging droplet technique. To do this, 2.5 μl of polyethylene glycol 8000 at 21% as a precipitating agent and 0.5 μl of a 0.1M solution of spermidine as a crystallisation additive were added to 2 μl of the protein solution described previously. This droplet was equilibrated at 19° C. against a reservoir containing 500 μl of polyethylene glycol 8000 at 21%.
The crystals were then immersed for 20 hours in a polyethylene glycol 8000 solution at 21% containing 10 mM of acarbose (a pseudo-tetrasaccharide).
Collection of the diffraction data was carried out using an X-ray generator (CuKα radiation—wavelength 1.5418 Å) with a rotating anode (Nonius 581) operating at 40 kV and 90 mA (i.e. 3.6 kW) with a graphite monochromator coupled to a two-dimensional detector of Image Plate type (MarResearch 345) of 34.5 cm in diameter.
A set of 180 diffraction exposures (each corresponding to 1° of oscillation of the crystal) was collected at 15° C., the crystal being capillary mounted and positioned at 120 mm from the detector, with an exposure time of the crystal to the X-rays of 500s per exposure. The highest resolution of this set of data is 2.44 Å.
We then determined the space group as being a P212121. The asymmetrical unit is composed of a molecule of the AMY1/spermidine complex, which corresponds to a volume of solvent in the lattice of 53%.
Subsequent processing of the data was carried out using the CCP4 suite of programs (CCP4, 1994).
The molecular replacement method was used thanks to the AmoRe software (Navaza, 1994) using the structure of isoenzyme 2 of barley α-amylase (AMY2-accession code PDB: 1AMY) (Kadziola et al., 1994 and Kadziola et al., 1998) as a guide model because of the significant sequence homology (80%) between this initial model and our protein of interest (AMY1). Refinement phases using molecular dynamic techniques (simulated annealing—Brünger et al., 1990) were carried out with CNS software version 0.9a (Brünger et al., 1998) alternating with model manipulations. […] In order to do this, 2Fo-Fc and Fo-Fc electronic density maps were calculated. […]

[1] = experimental AMY1/spermidine complex

T1 sequence (P00693 25-429 limits assumed): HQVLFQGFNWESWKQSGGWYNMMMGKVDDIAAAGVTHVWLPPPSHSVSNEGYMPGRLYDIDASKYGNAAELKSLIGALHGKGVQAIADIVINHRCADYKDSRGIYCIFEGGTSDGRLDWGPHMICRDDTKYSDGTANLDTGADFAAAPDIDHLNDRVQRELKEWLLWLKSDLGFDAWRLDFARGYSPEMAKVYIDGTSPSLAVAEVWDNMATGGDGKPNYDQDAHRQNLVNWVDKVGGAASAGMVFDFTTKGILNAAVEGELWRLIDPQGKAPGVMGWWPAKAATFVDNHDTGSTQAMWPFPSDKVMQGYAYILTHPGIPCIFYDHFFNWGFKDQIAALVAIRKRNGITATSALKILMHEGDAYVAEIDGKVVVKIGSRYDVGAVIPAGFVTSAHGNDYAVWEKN

Direct hydrogen bonds with a residue [1]: 5
Direct hydrogen bonds with a water molecule [1]: 4
total of H bonds stabilising the complex (experimental AMY1/spermidine structure): 9
Compound: NCCCCNCCCN [spermidine]
affinity for the enzyme compared with acarbose type inhibitors (in the presence of the two types of inhibitors (spermidine and acarbose)): significantly greater affinity for the enzyme in comparison to the acarbose type inhibitors
